Experimental data published in patent US9783852B2, “Method for assessing embryotoxicity” (priority 2008, dated 2017).
≈ marks a conversion by molar mass, not a printed value. Where two headings read alike, the source gives them in different places.

Legend:
Hand1-ES cells = assay: Hand1-ES cell luciferase reporter test during myocardial differentiation; settings: for Hand1-ES ID50 (50% inhibitory concentration for differentiation): concentration at which 50% of the luciferase activity is inhibited, day 6, medium for myocardial differentiation
Experimental: Hand1-ES cell line was cultured while maintaining an undifferentiated state in DMEM medium containing 15% heat inactivated fetal bovine serum supplemented with LIF containing 100 μg/mL G418. The undifferentiated Hand1-ES cells were dispersed using 0.25% trypsin/1 mM EDTA, and thereafter, the cells were suspended in DMEM medium containing 15% heat inactivated fetal bovine serum. Residual trypsin was removed by centrifugation and suction of the supernatant, and the cells were suspended in DMEM medium containing 15% heat inactivated fetal bovine serum not containing LIF (hereinafter, medium for myocardial differentiation). Thereafter, the number of cells was counted using a small amount of the cell solution, and a cell suspension (medium for myocardial differentiation) was prepared so as to have a cell number of 15,000 cells/mL. The prepared cell suspensions were added with only solvent such as PBS(−) or DMSO as a solvent control or added with a test chemical prepared by diluting with solvent into several levels, and thereafter, each cell suspension was seeded in a nonadherent U-bottom 96-well plate in a volume of 50 μL, and the culture was performed for 3 days. On day 3, 50 μL of the medium for myocardial differentiation supplemented with the test chemical again prepared was added, and the suspension culture was continued for 3 days. On day 6, 100 μL of a luciferase luminescent reagent, Steady-Glo (Promega), was added to each well and shaken for 30 minutes, and thereafter, the total amount was transferred to a 96-well white plate, and the luciferase activity was measured with a TopCount NXT luminescence detection counter (Packard Japan). The obtained activity values were averaged and tallied for the solvent control group and every concentration of the test chemical.

[1] = tested on: balb/c 3T3 cells cloneA31; assay: 3T3 cell proliferation test (CellTiter-Glo); assay type: cell-based; settings: Mus musculus, BALB/c3T3, 144 h, read-out: 3T3 IC50 (50% inhibitory concentration for cell growth)
Experimental: In addition, using balb/c 3T3 cells cloneA31 obtained from ATCC (hereinafter, 3T3 cells), the effects of each test chemical on cell proliferation were evaluated by the following method. The 3T3 cells cultured in DMEM medium containing 10% heat inactivated fetal bovine serum, 2 mM glutamine, penicillin and streptomycin (medium for 3T3) in an incubator at 37° C. and 5% CO2 were dispersed using 0.25% trypsin/1 mM EDTA, and thereafter, the cells were suspended in the medium for 3T3. Residual trypsin was removed by centrifugation and suction of the supernatant, and the cells were suspended in the medium for 3T3. Thereafter, the number of cells was counted using a small amount of the cell solution, and a cell suspension was prepared so as to have a cell number of 10,000 cells/mL. The prepared cell suspensions were added with only solvent such as PBS(−) or DMSO as a solvent control or added with a test chemical prepared by diluting with solvent into several levels. Thereafter, each cell suspension was seeded in a white 96-well plate for cell culture in a volume of 50 μL, and the culture was performed for 3 days. On day 3, 50 μL of the medium for 3T3 supplemented with the test chemical again prepared was added, and the culture was continued for 3 days. On day 6, the supernatant of each well was removed by suction, then, each well was supplemented with the solution in a CellTiter-Glo™ Luminescent Cell Viability Assay kit (Promega) and shaken for 30 minutes, and thereafter, the activity was measured with a TopCount NXT luminescence detection counter. […] The activity values obtained from each test of the Hand1-ES cells and the 3T3 cells were averaged and tallied for the solvent control group and every concentration of the test chemical, and thereafter, a relative value of each concentration was calculated using the average value of the solvent control group as 100%.

[2] = known classification of the test chemicals used; cited from earlier work
[3] = day 6, CellTiter-Glo luminescence

O=c1[nH]c(=O)n([C@H]2C[C@H](O)[C@@H](CO)O2)cc1Br [5-bromo-2′-deoxyuridine]
Embryotoxicity assessment from comparing Hand1-ES ID50 with 3T3 IC50 (Hand1-ES cells): has embryotoxicity | Hand1-ES ID50 (50% inhibitory concentration for differentiation) (Hand1-ES cells): 0.12 µg/mL | IC50 [1, 3]: 0.8 µg/mL (≈ 2.61 µM) | in vivo embryotoxicity [2]: positive

O=c1[nH]cc(F)c(=O)[nH]1 [5-fluorouracil]
Embryotoxicity assessment from comparing Hand1-ES ID50 with 3T3 IC50 (Hand1-ES cells): has embryotoxicity | Hand1-ES ID50 (50% inhibitory concentration for differentiation) (Hand1-ES cells): 0.02 µg/mL | IC50 [1, 3]: 0.16 µg/mL (≈ 1.23 µM) | in vivo embryotoxicity [2]: positive

C=CC(N)=O [acrylamide]
Embryotoxicity assessment from comparing Hand1-ES ID50 with 3T3 IC50 (Hand1-ES cells; ID50<IC50 = embryotoxic, ID50 larger than IC50 = not shown): embryotoxicity is not shown | Hand1-ES ID50 (50% inhibitory concentration for differentiation) (Hand1-ES cells): 85.3 µg/mL | IC50 [1, 3]: 54 µg/mL (≈ 760 µM) | in vivo embryotoxicity [2]: negative

O=C1O[C@H]([C@@H](O)CO)C(O)=C1O [ascorbic acid]
Embryotoxicity assessment from comparing Hand1-ES ID50 with 3T3 IC50 (Hand1-ES cells): embryotoxicity is not shown | Hand1-ES ID50 (50% inhibitory concentration for differentiation) (Hand1-ES cells): 28.3 µg/mL | IC50 [1]: 2 µg/mL (≈ 11.4 µM)

C[C@@H]1C[C@H]2[C@@H]3CCC4=CC(=O)C=C[C@]4(C)[C@@]3(F)[C@@H](O)C[C@]2(C)[C@@]1(O)C(=O)CO [dexamethasone]
Embryotoxicity assessment from comparing Hand1-ES ID50 with 3T3 IC50 (Hand1-ES cells): has embryotoxicity | Hand1-ES ID50 (50% inhibitory concentration for differentiation) (Hand1-ES cells): 15.6 µg/mL | IC50 [1, 3]: 36.7 µg/mL (≈ 93.5 µM) | in vivo embryotoxicity [2]: positive

NC(=O)NO [hydroxyurea]
Embryotoxicity assessment from comparing Hand1-ES ID50 with 3T3 IC50 (Hand1-ES cells): has embryotoxicity | Hand1-ES ID50 (50% inhibitory concentration for differentiation) (Hand1-ES cells): 2.5 µg/mL | IC50 [1, 3]: 4.7 µg/mL (≈ 61.8 µM)
